The nature of series [1]: AUCinf in CD-1 mouse at 0.5 mg/kg, iv by LC-MS/MS analysis. The class given is ADME, organism-based. Conditions: in vivo. The arrangement: time infinity, dose 0.5 mg/kg, route iv.
Series [2] is described as follows: AUCinf in CD-1 mouse at 2 mg/kg, po by LC-MS/MS analysis. Set-up: time infinity, dose 2 mg/kg, route po. It is filed as ADME, organism-based. Conditions: in vivo.
Series [3] in a line: Cmax in CD-1 mouse at 0.5 mg/kg, iv by LC-MS/MS analysis. It is filed as ADME, organism-based. Set-up: dose 0.5 mg/kg, route iv. Particulars: in vivo.
Series [4] can be described thus: Cmax in CD-1 mouse at 2 mg/kg, po by LC-MS/MS analysis. It is filed as ADME, organism-based. The arrangement: dose 2 mg/kg, route po. Conditions: in vivo.
The nature of series [5]: Tmax in CD-1 mouse at 2 mg/kg, po by LC-MS/MS analysis. Conditions: in vivo. The class given is ADME, organism-based.
Series [6] can be described thus: Half life in CD-1 mouse at 0.5 mg/kg, iv by LC-MS/MS analysis. Particulars: in vivo. It is filed as ADME, organism-based.
Series [7] is described as follows: Half life in CD-1 mouse at 2 mg/kg, po by LC-MS/MS analysis. The class given is ADME, organism-based. Conditions: in vivo.
Series [8] in a line: Volume of distribution at steady state in CD-1 mouse at 0.5 mg/kg, iv by LC-MS/MS analysis. It is filed as ADME, organism-based. Particulars: in vivo, read-out: Vdss.
Series [9] can be described thus: MRT in CD-1 mouse at 0.5 mg/kg, iv by LC-MS/MS analysis. It is filed as ADME, organism-based. Particulars: in vivo.
A short description of series [10]: MRT in CD-1 mouse at 2 mg/kg, po by LC-MS/MS analysis. The class given is ADME, organism-based. Conditions: in vivo.
Series [11] can be described thus: Clearance in CD-1 mouse at 0.5 mg/kg, iv by LC-MS/MS analysis. The class given is ADME, organism-based. Conditions: in vivo.
Series [12] is described as follows: Oral bioavailability in CD-1 mouse at 2 mg/kg by LC-MS/MS analysis. The class given is ADME, organism-based. Conditions: in vivo.
A short description of series [13]: in vitro. Conditions: human, Caco-2.
A short description of series [14]: in vitro. Conditions: human, Caco-2. The source holds these as a separate data set.
A short description of series [15]: in vitro. Particulars: mouse, liver microsomes. For orientation: Liver microsomes are a subcellular fraction often used to study metabolism.
Series [16] can be described thus: in vitro. Particulars: human, liver microsomes.

The term AUC(0-inf) denotes total exposure, with the tail of the curve extrapolated. Low values mean low exposure, high ones high exposure. As a reminder, the Cmax is the peak of the concentration-time curve. For orientation: Tmax means the time from dosing to the highest level. A word on the half-life: it is the time in which the quantity being followed falls by half. A low value points to rapid decline. A word on the MRT: it is the average time that molecules of a dose stay in the body. One may read the clearance as the volume of plasma or blood freed of the substance per unit of time. Low readings indicate inefficient removal, high ones efficient removal. The Papp A→B is the apparent permeability from the apical to the basolateral side of a cell layer. Lower therefore signals poor permeation. Broadly, the Papp B→A is the apparent permeability from the basolateral to the apical side of a cell layer. With `Cc1[nH]nc(-c2ccncc2)c1-c1ccc(-c2cccc(S(N)(=O)=O)c2)c(C2CC2)c1`, the figures for the total exposure AUC(0-inf) in [1] and in series [2] were 0.58 µM·h and 2.55 µM·h, respectively. Also, the Cmax in [3] and in series [4] was 580 nM throughout. In series [5], the Tmax came to 1 h. Also, the half-life in series [6] was 0.8 h; in series [7] it was 1.25 h. For the same molecule, the Vd in series [8] was 2 L/kg. In addition, the MRT in [9] came out at 1.01 h; in series [10], 3.01 h. In [11], this molecule displayed a clearance of 33.5 mL/min/kg. Besides, in series [12], the bioavailability is 111%. This molecule had an apparent permeability from apical to basolateral (Papp A→B) at 2 h, 10 µM in the series “in vitro [13]” of 8.78 ×10⁻⁶ cm/s. Also, the Papp B→A at 2 h, 10 µM in “in vitro [14]” is 27 ×10⁻⁶ cm/s. For the same molecule, the half-life at 40 min came to 0.5 h in “in vitro [15]” and 2.65 h in “in vitro [16]”.
